SMILES | melting point
COc1cc(C)c(C(O)c2c(Cl)cncc2C(F)(F)F)c(OC)c1OC (configuration not stated) | 102 to 105 °C
CNCCc1ccc(-c2ccc(OC(C)C(O)CCc3cccnc3)cc2)cc1 (configuration not stated) | 113 to 114 °C
CC(=O)C(=Cc1cc([N+](=O)[O-])cc([N+](=O)[O-])c1)C(C)=O | 101 to 105 °C
CCc1cc(=O)n(C)c2c1C(=O)CCC2 | 65 to 70 °C
Oc1ccc(-c2cc3cc(O)cc(CC(F)(F)F)c3o2)cc1 | 210 to 213 °C
CC(C)(CCCCCCCCCCCCC1(C(=O)O)CC1)C(=O)O | 85.6 to 86.7 °C
COc1ccc(NC(=O)/C=C/c2c(F)c(F)c(F)c(F)c2F)cc1[N+](=O)[O-] | 265 to 266 °C
Cc1cc2c3c(c1)C1(CC(=O)NC1=O)C(=O)N3CCC2 (configuration not stated) | 165 to 167 °C
CCCCCCCCN(CCCCCCCC)c1nc(Nc2ccc3nc(S)sc3c2)nc(N(CCCCCCCC)CCCCCCCC)n1 | 81 to 83 °C
CC1=C(C(=O)OCCO)C(c2cccc([N+](=O)[O-])c2)C2=C(CCCS2(=O)=O)N1 (configuration not stated) | 233 to 235 °C
C(=C\c1cc(/C=C/c2ccc3cc[nH]c3c2)[nH]n1)/c1ccc2cc[nH]c2c1 | 289 to 291 °C
Cc1cc(C(O)(C(F)(F)Cl)C(F)(F)Cl)cc(C)c1O | 90.5 to 92 °C
CCc1nc2c(O)c(CN(C)C)c(C(=O)N(C)C)cc2n1C | 183 to 185 °C
C[C@@H](n1ncn(-c2ccc(OC(F)(F)F)cc2)c1=O)[C@@]1(c2ccc(F)cc2F)CO1 | 103 to 106 °C
CCCn1nnc2c(Nc3ccc(C(C)C)cc3Br)nc(C)nc21 | 80 to 81 °C
CC(C)(C)OC(=O)NC1CCCCCC=CC2CC2(C(=O)NS(=O)(=O)C2CC2)NC(=O)C2CC(OC(=O)c3ccc(F)cc3)CN2C1=O (configuration not stated) | 154 to 156 °C
CCn1c(Nc2cc(C(F)(F)F)ccc2C(F)(F)F)nc(C(F)(F)F)c(Cl)c1=O | 144 to 146 °C
CN(c1cc(F)c(C#N)cc1F)c1nnnn1-c1ccc(F)cc1 | 162 °C
O=S(=O)(c1ccccc1)n1c(-c2cccc(C(O)c3cc4ccccc4n3S(=O)(=O)c3ccccc3)c2)cc2ccccc21 (configuration not stated) | 81 to 83 °C
Cc1ccc(S(=O)(=O)N(C)c2ccc(C)c([N+](=O)[O-])c2)cc1 | 104 to 106 °C

SMILES | melting point
CCc1nc2c([nH]1)c(=O)n(C)c(=O)n2-c1ccc(Cl)cc1Cl | 274 to 276 °C
NCCN1CCC(c2n[nH]c3cc(F)ccc23)CC1 | 125 to 128 °C
COc1ccc2c(c1)CC(=O)N2N | 136 to 138 °C
Clc1ccc(Cn2cc(CN3CCC(c4ccccc4)(c4ccccc4)CC3)nn2)cc1 | 148 °C
COc1cc(C(C)C)c2c(c1)S(=O)(=O)N(COC(=O)c1sccc1C)C2=O | 132 to 134 °C
CC(C)(C)c1noc(-c2cccc(Cl)n2)n1 | 103 to 104 °C
CCCCc1oc2ccc(C#N)cc2c1C(=O)c1ccc(OCCCN(CCCC)CCCC)cc1 | 85 to 87 °C
CSc1cc2c(cc1C(F)(F)F)N(C(=O)Nc1ccc(-c3csc(-c4ccncc4)n3)cc1)CC2 | 253 to 254 °C
Cc1cc(-c2cc(C(F)(F)F)n3ncc(C(=O)Nc4cccc(S(=O)(=O)NC5CC5)c4)c3n2)ccc1C(F)(F)F | 201 °C
Nc1ccc(S(=O)(=O)Nc2ccn(C3CCCCC3)c(=O)n2)cc1 | 100 to 120 °C
COC(=O)CCCCCCCCC=CCCCCCCCCC(=O)OC | 44 °C
COc1ccc(NC(=S)Nc2ccc(NNC=O)c(OC)c2)cc1 | 160 to 162 °C
COc1ccc2c(c1)c1c(n2C)CC(C(N)=O)C1 (configuration not stated) | 178 to 180 °C
CN(Cc1ccc(NS(C)(=O)=O)cc1)C1CCN(c2ccc(NS(C)(=O)=O)cc2)CC1 | 177 to 179 °C
COc1ccc(Nc2nc(NC(C)C)nc(N(C)C3CCNCC3)n2)cc1Cl | 129 °C
O=c1[nH]c2ncc(-c3cccc(-c4nnn[nH]4)c3)nc2n1CC1CCCCC1 | 248 to 250 °C
COCCOc1ccc(CCCNS(=O)(=O)c2cccc(Cl)c2)c(Oc2ncc(C(F)(F)F)cc2Cl)c1 | 110 to 114 °C
Cc1nonc1-n1cc(C(=O)O)c(=O)c2cc(F)c(Cl)nc21 | 242 to 247 °C
Clc1nc(N2CCOCC2)c2nnn(C3CCOCC3)c2n1 | 142 °C
CCCCCCCCCCc1cnc(-c2ccc3c(c2)C(=O)C(CCCCCC)C3)nc1 (configuration not stated) | 87 °C

SMILES | melting point
O=[N+]([O-])c1ccc2c(c1)N(C1CC1)CNS2(=O)=O | 166 to 169 °C
O=Cc1cc(Cl)c(O)c(O)c1Cl | 176 to 178 °C
CCCCCc1ccc(C=Nc2ccc(C#N)cc2)cc1 | 45.6 to 46.4 °C
CCC(C)(C)c1ccc(Oc2ccc(C(=O)c3ccc(Oc4ccc(C(C)(C)CC)cc4C(C)(C)CC)cc3)cc2)c(C(C)(C)CC)c1 | 54 to 56 °C
CNC(=O)c1ccc(C2=N[C@H]3CCCC[C@H]3c3cc(OC)c(OC)cc32)cc1 (racemic) | 209 to 211 °C
CCCC12CCC3C4=C(CCC3C1CCC2=O)CC(OC)=CC4 (configuration not stated) | 128 to 131 °C
C#Cc1cccc(-c2cccc([N+](=O)[O-])c2-c2cc(C#C)ccn2)c1 | 130 to 132 °C
c1ccc2c(c1)Cc1ccncc1N1OC(CN3CCOCC3)CC21 (configuration not stated) | 46 °C
COc1ccnnc1NS(=O)(=O)c1cccc(Cl)c1Cl | 210 to 211 °C
CN(c1cccc2cc(-c3ncc(CCc4n[nH]c(=O)o4)s3)[nH]c12)S(=O)(=O)c1cccs1 | 255 to 256 °C
CCC(=O)NC1CCc2cc(OC)ccc2C1 (configuration not stated) | 125 °C
COC(=O)c1ccc(NS(=O)(=O)c2sc3ccc(F)cc3c2C)c(S(C)(=O)=O)c1 | 202 to 204 °C
CCCCc1[nH]c2ccc([N+](=O)[O-])cc2c1C(=O)c1ccc(OCCCN(CCCC)CCCC)cc1 | 116 °C
NS(=O)(=O)OCCOS(N)(=O)=O | 98.5 to 101 °C
CCCCCCCCCCC(NC(=O)NC12CC3CC(CC(C3)C1)C2)C(=O)OC (configuration not stated) | 75 °C
Cn1cc(C(N)=O)c(=O)c2cc(F)ccc21 | 295 to 299 °C
CCOC(=O)C1Cc2c(OC)cc(Cl)c(OC)c2CO1 (configuration not stated) | 95 °C
CN1C(=O)CC[C@]2(C)c3ccc(C=Cc4cnc5ccccc5c4)cc3CC[C@@H]12 | 181 to 183 °C

The next lines start with the values.

melting point | SMILES
165 to 166 °C | O=C1c2ccccc2-c2c1c1ccccc1c(=O)n2CCCCO
187 to 190 °C | c1ccc(N=C(NC(=Nc2ccccc2)N2CCCCO2)c2ccccc2)cc1
> 300 °C | CC(C)OC(=O)c1ccc2c(c1)C(=O)CC(c1ccccc1)=N2
121 to 122 °C | CC(=O)SCC(Cc1ccccc1)C(=O)Nc1ccccc1C(=O)O (configuration not stated)
155 to 158 °C | COc1nc(C)nc(NC(=O)NS(=O)(=O)c2ccccc2C(=S)C(C)C)n1
193 to 195 °C | CN1c2ccccc2-c2nc3ccc(Cl)cc3c3cc(OS(=O)(=O)C(F)(F)F)cc1c23
134 to 135 °C | COC(=O)C1C(c2cccc([N+](=O)[O-])c2)C(C(=O)OC(C)C)=C(C)NC1(O)c1ccccc1 (configuration not stated)
76 to 78 °C | COc1ccc(Sc2ccccc2CCl)cc1
68 to 72 °C | CC(CCC(=O)O)(c1ccc(OCc2ccc3ccccc3n2)cc1)c1ccc(OCc2nc3ccccc3s2)cc1 (configuration not stated)
75.8 °C | Cc1ccc(CSCCC(=O)O)cc1
191 to 192 °C | ON=C1Cc2ccccc2C=Cc2ccccc21
233 to 234 °C | O=C(C1CCC(Nc2nccc(-n3nnc4c(-c5ccsc5)cccc43)n2)CC1)N1CCC(O)CC1 (configuration not stated)
60.5 to 62 °C | COCc1cc(C2=C(Cl)CCN(C(=O)c3ccccc3)C2)no1
190 to 191 °C | O=C(O)c1cccc(-c2ccc3c(c2)C(NCc2ccc(Cl)cc2Cl)CC3)c1 (configuration not stated)
118 to 119 °C | O=C(CNC(=O)c1ccccc1)c1ccsc1
191 to 195 °C | CC1(C)CC(NC(=O)C(=O)NNC(=O)COc2ccc(C(=O)c3ccccc3)c(O)c2)CC(C)(C)N1
67 to 70 °C | Cc1nc(-n2ccc(Oc3ccccc3)cc2=O)sc1C(=O)NCc1ccccc1
77 to 79 °C | CC(C)(c1ccccc1)C(Sc1ccc(Cl)cc1)n1ccnc1 (configuration not stated)
230 to 233 °C | Cc1ccc2c(c1)c1c(n2C(=O)c2ccc(F)cc2)CCC(C(=O)O)C1 (configuration not stated)
229 to 231 °C | CCc1cccc(CC)c1NC(=O)Nc1sc2cc(OC)c(OC)cc2c1-c1ccccc1Cl

melting point | SMILES
174 to 180 °C | Nc1cccc(C(=O)CN2CCN(c3ccc(CO)c(Cl)c3)CC2)c1
238 to 239 °C | COc1cccc(NC(=O)NC2N=C(C)c3ccccc3N(CC(=O)N(C)c3ccccc3)C2=O)c1 (configuration not stated)
136 to 138 °C | COC(=O)c1ccc(OCC2CC(=O)N(c3ccc(N)cc3)C2)cc1 (configuration not stated)
157 to 158 °C | CCOC(=O)C(C)c1ccc(N[C@@H](CCC(N)=O)C(=O)O)cc1 (some centres not stated)
213 to 216 °C | O=C1CCC2=C(c3ccccc3)c3ccccc3C2N1 (configuration not stated)
150 to 151 °C | CC1(C)CCC(C)(C)c2cc(C(=O)SCc3ccc(C(=O)O)cc3)ccc21
253 °C | O=C(O)c1ccc2c(c1)Sc1ccccc1O2
131 °C | CN(C(=O)c1cc2ccccc2c(-c2ccccc2Cl)n1)C1CCCCC1
196 to 200 °C | CN1C(=O)C(C(=O)Nc2cccc(C(F)(F)F)c2)S(=O)(=O)c2ccc(Cl)cc21 (configuration not stated)
138 to 139 °C | O=C(CCCI)Nc1ccccc1
160 to 161 °C | O=C(O)CCc1cc(-c2ccccc2)nn1Cc1ccc(Cl)cc1Cl
220 to 223 °C | O=C(C=C(c1ccccc1)c1ccc(Cl)cc1)Nc1ccc(C(=O)O)cc1
60 to 61 °C | CC(C)OC(=O)CCN=c1sc2ccccc2s1
164 to 165 °C | CC(C)N1Cc2cccnc2N(c2ccccc2)C1=O
184 to 186 °C | CCOC(=O)COc1cc(O)ccc1C(=O)c1ccc(OCc2nc(-c3ccccc3)oc2C)cc1
168 °C | C1=C(c2cccs2)NN=C(c2cccs2)C1c1cccs1 (configuration not stated)
224 to 227 °C | CCCNC(=O)C(C)=Cc1ccc2ccn(Cc3ccc(C(=O)NS(=O)(=O)c4ccccc4C)cc3OC)c2c1
95 to 105 °C | O=C(O)C(CCc1ccccc1)CC(CCc1ccccc1)C(=O)O (configuration not stated)
289 to 290 °C | NC(=O)c1cc2cccc(NC(=O)c3cccs3)c2[nH]1
